Patent US8877889B2, “Tumor cell-killing peptides” (Industry-Academic Cooperation Foundation, Chosun University, priority 2009, dated 2014)
“Also recorded” adds a separate entry of the source.

Experiments:
HeLa cells [1] = assay: Live cell images and annexin V / SYTOX Green staining of dying cells; assay type: cell-based
Method: (§1) (A) HeLa cells were treated with MTD peptides (10 μM), or TRAIL (100 ng/ml). Images were taken at the indicated times (upper panel). Jurkat cells were treated with MTD peptide (10 μM) for 10 minutes, cells were processed for TEM. Images were obtained with 4,000× magnification (lower panel). N: nucleus, M: mitochondrion.
(D) HeLa cells were treated with the MTD (5 μM) peptide with or without the pretreatment of 10 μM BAPTA-AM for 2 hours. Live cell images were serially acquired at 10-second intervals for 10 minutes and shown at the indicated times.
(A) HeLa cells were stained with FITC-conjugated Annexin V antibody at 10 minutes after DMSO or MTD treatment. Images were obtained under the confocal microscope.
(B) HeLa cells were stained with SYTOX Green 10 minutes after DMSO or MTD treatment. Images were obtained using confocal microscope.

HeLa cells [2] = assay: Cytochrome c release by immunofluorescence; assay type: cell-based; details: HeLa cells; MTD peptide 5 μM
Method: (B) Plasmids (control vector or Noxa WT fused to GFP) were transfected into HeLa cells. After 2 days in the presence of zVAD-fmk, cytochrome c was stained with anti-cytochrome c antibody. Arrows indicate the diffused cytochrome c staining (upper panel). The release of cytochrome c was analyzed by immunofluorescence in HeLa cells after treatment with MTD peptides (5 μM) (lower panel).

Jurkat cells = assay: Transmission electron microscopy of peptide-treated cells; assay type: cell-based; details: 10 μM for 10 minutes
Method: as §1
(§2) Jurkat cells or isolated mitochondria treated with MTD peptides were harvested by centrifugation and fixed with 2.5% glutaraldehyde for 2 hours followed by washing with 0.2 M sodium cacodylate buffer (pH 7.2) three times for 10-20 minutes. Fixation step was repeated overnight and washed with 0.2 M sodium cacodylate buffer three times. Samples were dehydrated with following sequential solutions 60% ethanol, 70% ethanol, 80% ethanol, 90% ethanol, 95% ethanol, and 100% ethanol twice for 20 minutes at 4° C., and then infiltrated by propylene oxide three times for 20 minutes. Samples were embedded with the mixture of propylene oxide and epon for 6 hours. Electron microscopic images were obtained using the Hitachi H-7600 electron microscope (80 kV, Hitachi, Tokyo, Japan). Mitochondria were isolated from mouse liver as previously described (1).

HeLa cells [3] = assay: Peptide-induced cell death, counting dead and survived cells under the light microscope; assay type: cell-based; details: peptides 10 μM, 20 μM, 30 μM, 10 minutes after treatment (FIG. 1B, 3A)
Method: (B) HeLa cells were treated with DMSO or the indicated peptides in increasing doses (10 μM, 20 μM, and 30 μM). % of cell death was determined at 10 minutes after treatment by counting the dead cells and survived cells under the light microscope.
(E) HeLa cells were transfected with substitution mutants of MTD peptide.
HeLa cells were treated with DMSO or with the indicated peptides at increasing doses (10 μM, 20 μM, or 30 μM). % cell death was determined 10 minutes after treatment by counting the dead cells and survived cells (300 cells per sample) under the light microscope.
(D) HeLa cells were treated with indicated amounts of MTD peptide for 1 hour, 2 hours, or 5 hours. % cell death was calculated by counting the dead cells and survived cells (200 to 500 cells per sample) under the light microscope. Data represent the means±SD of three independent experiments.

HeLa cells [4] = assay: Measurement of intracellular calcium with Fluo-4-AM; assay type: cell-based; details: 3 μM peptide
Method: (A-C) HeLa cells were loaded with 3 μM Fluo-4-AM for 30 minutes and then treated with 3 μM of indicated peptides (A: MTD, B: MTDmt3, C: MTDmt5). Fluorescence images and bright-field images were obtained with the laser scanning confocal microscope at 5-second intervals for 5 minutes. Relative fluorescence intensities (F/F0) at two region-of-interests (ROI 1 and 2) were measured at 5-second intervals for 5 minutes.
(E-G) HeLa cells were pretreated in calcium free KRB media alone (E), in KRB media with 10 μM 2-APB and 20 μM Ryanodine (F), or in KRB media with freshly made 30 μM CsA (G) for 2 hours. HeLa cells were then loaded with 3 μM Fluo-4-AM for 30 minutes and treated with 3 μM of MTD peptide. Images were obtained with the laser scanning confocal microscope at 5-second intervals for 5 minutes. Relative fluorescence intensities (F/F0) at two region-of-interests (ROI 1 and 2) were measured at 5-second intervals for 5 minutes.
For Ca^2+ measurements in the cytosol, HeLa cells were cultured in an Lab-Tek™ Chamber glass slide and loaded with Fluo-4-AM (Fluo-4-acetoxymethyl ester) at a final concentration of 3 μM for 30 minutes, followed by washing with PBS (Phosphate buffered saline) at pH 7.4 and the addition of fresh Ca^2+-free Krebs-ringer modified buffer (KRB: 125 mM NaCl, 5 mM KCl, 1 mM Na3PO4, 1 mM MgSO4, 5.5 mM glucose, and 20 mM HEPES, pH 7.4, at 37° C.) containing the indicated peptides. Time-lapse images were obtained at 488 nm excitation with the Argon laser scanning confocal microscope (Leica TCS SP5 Microsystems, Mannheim, Germany) at 10-second intervals for 5 minutes to visualize Fluo-4-AM.

A549 cells = assay: Peptide-induced cell death in A549 cells; assay type: cell-based; details: 5 μM, 1, 2 or 5 hours (FIG. 3D)
Method: (D) A549 cells were treated with indicated peptides for 1, 2, or 5 hours. % cell death was determined as described above.

[5] = tested on: Isolated mouse liver mitochondria; assay: Isolated mitochondria treated with peptide, transmission electron microscopy; details: 10 μM peptide; 1 hour at 30° C.
Method: (D) Isolated mouse liver mitochondria were treated with buffer (NT), MTD peptide (10 μM), or MTDmt5 peptide (10 μM), and then incubated for 1 hour at 30° C. Mitochondria were harvested by centrifugation (10,000×rpm) and then processed for transmission electron microscopy. Images (upper panel) were obtained with 7,000× magnification, and the relative mitochondrial sizes (lower panel) were calculated by measuring the diameters of about 40 individual mitochondria.
as §2

HeLa cells [6] = assay: Caspase activation, western blot of cell lysates; assay type: cell-based; details: 5 μM peptide
Method: (E) After treatment with the MTD peptide, MTDmt4, or MTDmt5 (5 μM) in HeLa cells, cell lysates were prepared at indicated times. Equal amounts of proteins were subjected to the SDS-PAGE and blotted onto PVDF membrane. After blocked with 5% nonfat milk in TBST (10 mM Tris-HCl, pH 7.5, 100 mM NaCl and 0.1% Tween-20), the membrane was probed with anti-caspase-3 (SantaCruz Biotechnology, Inc., Santa Cruz, Calif., USA), anti-caspase-8 (Cell signaling technology, Beverly, Mass., USA), anti-caspase-9 (SantaCruz Biotechnology, Inc., Santa Cruz, Calif.), anti-XIAP (Upstate Biotechnology, Dundee, United Kingdom), or anti-Bid (home-made) antibodies. Anti-actin antibody (Chemicon International, Inc., Temecula, Calif., USA) was used as equal loading control.

mPT pore = assay: Cobalt-quenched calcein assay; assay type: cell-based; details: HeLa cells; within 5 minutes after treatment
Method: (A) HeLa cells were loaded with 1 μM Calcein-AM and 2 mM cobalt for 15 minutes, and the mitochondria were stained by adding 25 μM MitoTracker for 2 minutes. The representative image of the calcein signals (green) that were overlapped with MitoTracker (Red) was shown.
(B) Time-lapse images of calcein and MitoTracker signals from HeLa cells that were not treated (top panel) or treated (bottom panel) with MTD peptide were obtained at 10-second intervals for 5 minutes. The representative images at the indicated time points were shown.
HeLa cells were loaded with 1 μM Calcein-AM and 2 mM cobalt in serum-free DMEM for 15 minutes, followed by adding 25 μM MitoTracker for 2 minutes to stain the mitochondria. Then, HeLa cells were briefly washed with HBSS (Hank's Buffered Salt Solution) and were treated with MTD peptide in calcium-free media containing 10% FBS (Fetal bovine serum). Time-lapse images were obtained at 10-second intervals for 10 minutes.

HeLa cells [7] = assay: HMGB1 release into the media, western blot; assay type: cell-based; details: 10 μM, 10 to 30 minutes, serum-free medium
Method: (C) HeLa cells were treated with DMSO or MTD peptides (10 μM) for 10 minutes or 30 minutes in the serum-free culture medium. After treatment, culture mediums were collected. Proteins in the conditioned media were precipitated by 2.5 vol. of methanol and 0.1 vol. of 5M NaCl. Precipitates and cell lysates were subjected to SDS-PAGE and western blot analysis with anti-HMGB1 antibody (R&D systems, Minneapolis, Minn.).

NCI-H460 cells = assay: Peptide-induced cell death in NCI-H460 cells; assay type: cell-based; details: 5 μM, 2 or 5 hours (FIG. 3C)
Method: (C) NCI-H460 cells were treated with indicated peptides for 2 hours or 5 hours. % cell death was determined as described above.

RRRRRRRRGRQKLLNLISKLF [MTD]
annexin V and SYTOX Green staining (HeLa cells [1]; 10 minutes after treatment): stained with annexin V and SYTOX Green
morphology of dying cells (HeLa cells [1]; MTD peptide 10 μM or TRAIL 100 ng/ml (FIG. 2A, 7A, 7B)): bubble-like structures of dying cells; also recorded: swollen cytoplasmic membrane
cytochrome c release from the mitochondria to the cytosol (HeLa cells [2]): not released; also recorded: neither cytochrome c release
ultrastructural changes by transmission electron microscopy (Jurkat cells): swollen mitochondria, the enlarged nucleus and cell membrane swelling; also recorded: swelled mitochondria
cell death-inducing activity (% of cell death) (HeLa cells [3]): comparable cell death-inducing activity to NoxaBH3MTD peptide
cytosolic calcium level change (HeLa cells [4]): substantially increased
time to cytosolic calcium increase after treatment (HeLa cells [4]): 1 to 3 min
susceptibility of cells to peptide (A549 cells): very resistant
morphological changes or mitochondrial size changes of isolated mitochondria [5]: did not show any morphological changes or mitochondrial size changes; also recorded: no morphological changes
caspase activation (HeLa cells [6]): not activated
mitochondrial calcein signals (mPT pore opening) (mPT pore): significantly decreased
HMGB1 release to the media (HeLa cells [7]): significantly released to the media
susceptibility of cells to peptide (NCI-H460 cells): very susceptible
